We go through 1 molecule from patent US11261210B2, “Glycosylated antitumor ether lipids as novel cancer stem cell cytotoxic agents” (UNIVERSITY OF MANITOBA, priority 2012, dated 2022).

Molecules are shown by their SMILES.

For data set [1], the system named is JIMT-1 stem cell spheroids. Put plainly: Morphology of JIMT-1 stem cell spheroids. The data set is classed as cell-based, human. As for the experimental part: FIG. 7. A. Effect of β-O-Gln, β-C-Gln or ET-18-OCH3 on morphology of JIMT-1 stem cell spheroids. B. Effect of β-O-Gln, α-O-Gln or ET-18-OCH3 on morphology of JIMT-1 stem cell spheroids. JIMT-1 cancer stem cells were grown for 7 days in ultra low adhesion 6 well plates. The tumorspheres formed were harvested, trypsinised and cell numbers were determined. Equal numbers of cells were dispersed into 48-well non-treated plates in mammocult medium and incubated in a CO2 incubator under static conditions. After spheres were formed, O-Gln, C-Gln or ET-18-OCH3 were added (0, 10, 20 and 30 μM) and incubation was for a total of 6 days with media supplementation after 3 days. Images for FIG. 7A were taken at day 0 and after 72 h following addition of the compounds. Images for FIG. 7B were taken after 6 days incubation with the compounds.
The above studies were repeated with JIMT-1 spheroids.

For the next data set, the system named is BT-474 cancer stem cells. Put plainly: BT-474 cancer stem cell spheroid formation. To be noted: BT474 cancer stem cells, FIG. 1B. The data set is classed as cell-based, human. As for the experimental part:
FIG. 1. A. Effect of β-C-Gln (β-AC1) on BT-474 cancer stem cell spheroid formation. BT-474 cancer stem cells were obtained by staining BT474 cells for ALDH1 and sorting the stained from unstained cells by flow cytometry. The ALDH1 stained cells were grown in ultra-low adhesion 6-well plates in mammocult medium for 7 days. The spheroids were isolated and trypsinised to generate single cells. The cells were then seeded for 2 days in ultra-low adhesion 6-well plates, and subsequently incubated in the absence or presence of C-Gln for up to 12 days. The media was replenished after 6 days. B. Effect of β-O-Gln (β-AO1), α-O-Gln (α-AO1), or ET-18-OCH3 on BT-474 cancer stem cell spheroid formation.
Breast cancer stem cell enriched cell population was obtained by staining breast cancer cell lines BT-474 and JIMT-1 for aldehyde dehydrogenase 1 (ALDH1) using the assay kit from Stem Cell Technologies (Vancouver BC, Canada) according to the instructions of the manufacturer with the appropriate controls. […] The cell numbers were determined with a Coulter ZM counter and the cells were seeded into the appropriate low adhesion tissue culture ware for various studies. […]

In a further data set the test system is cancer stem cells. Put plainly: Tumorsphere formation by freshly sorted cancer stem cells. The data set is classed as cell-based, human. To be noted: added to freshly sorted cancer stem cells, 10 μM and above, 6 days. The source says: Breast cancer stem cell enriched cell population was obtained by staining breast cancer cell lines BT-474 and JIMT-1 for aldehyde dehydrogenase 1 (ALDH1) using the assay kit from Stem Cell Technologies (Vancouver BC, Canada) according to the instructions of the manufacturer with the appropriate controls. BT-474 is a ductal carcinoma cell line (Lasfargues E Y, Coutinho W G, Dion A S (1979) A human breast tumor cell line (BT-474) that supports mouse mammary tumor virus replication. In Vitro 15, 723-729) while JIMT-1 is a carcinoma cell line that is resistant to herceptin (Tanner M, Kapanen A J, Junttila T, Raheem O, Grenman S, Elo J, Elenius K, Isola J (2004). Characterization of a novel cell line established from a patient with herceptin-resistant breast cancer. Mol Cancer Ther 3, 1585-1592). Following the staining, the cells stained for ALDH1 were sorted from the bulk population by flow cytometry on a 4 laser MoFloXPP high speed/pressure cell sorter. The cells were pelleted by centrifugation, resuspended in supplemented Mammocult medium (Stem Cell Technologies) and dispersed into ultra-low adhesive 6-well plates or 35 mm dishes for 7 days to allow the formation of spheroids (mammospheres). After 7 days, the spheres were separated from single cells (dead non-stem cells) by sieving the contents of the well through a […] nylon cell strainer (BD Falcon). The spheres retained in the sieve are washed with Hanks buffer and subsequently trypsinised to obtain a single cell suspension of cancer stem cells. The cell numbers were determined with a Coulter ZM counter and the cells were seeded into the appropriate low adhesion tissue culture ware for various studies.
AEL solutions in ethanol were diluted into supplemented mammocult medium generally at twice the desired final concentration. A volume equal to that in the wells was added to dilute the drug to the desired concentration in each well. Subsequently any further addition of drug to the wells, utilized AEL solution prepared at the desired concentration. […]

Data set [2] deals with JIMT1 stem cell tumorspheres. Put plainly: Viability of JIMT1 stem cell tumorspheres (MTS assay). The data set is classed as cell-based, human. To be noted: 6 days. As to the method: FIG. 8. Effect of β-O-Gln, α-O-Gln, β-C-Gln and ET-18-OCH3 on the viability of JIMT1 stem cell tumorspheres. BT-474 cancer stem cells were grown for 7 days in ultra low adhesion 6-well plates. The tumorspheres formed were harvested, trypsinised and cell numbers were determined. Equal numbers of cells were dispersed into 48-well non-treated plates in mammocult medium and incubation was under static conditions. Wells with only medium but no cells were treated in an identical manner to serve as blanks. After spheres were formed, O-Gln, C-Gln or ET-18-OCH3 (0, 10, 20, 30 μM) were added and incubation was for a total of 6 days. At the end of the incubation, the MTS reagent was added to each well and the plates were mixed in a nutator in a 5% CO2 incubator for 4 h. The absorbance of each well was read at 470 nm. The results are the means±standard deviation of 4 independent determinations.
Cell viability assay: Cell viability was determined by the Cell Titre 96 Aqueous One solution proliferation assay ((MTS assay; Promega) according to the instructions of the manufacturer.
The viability of cells in spheroids incubated with 20 or 30 μM ET-18-OCH3 was between 30-40% of controls.
On the technique in general: Tetrazolium dyes change colour on reduction, which living cells bring about.

For another data set, the system named is BT474 cancer stem cells. Briefly: Trypan blue dye exclusion viability of BT474 cancer stem cells. The data set is classed as cell-based, human. To be noted: BT474 cancer stem cells incubated with compound. As for the experimental part:
Trypan blue dye exclusion assay using the TC10 automated cell counter (BioRad) was also used for some studies.
We investigated the effects of the GAELs and the ALPET-18-OCH3 on the ability of the cancer stem cells to form tumorspheres. […] This was a concentration dependent event and at concentrations greater than 10 μM spheroid formation was completely disrupted.

The conditions of data set [3]: cells with a functioning apoptotic pathway; cited from earlier work.

On to `CCCCCCCCCCCCCCCCOC[C@H](CO[C@@H]1O[C@H](CO)[C@@H](O)[C@H](O)[C@H]1N)OC` [β-O-Gln, 1-O-hexadecyl-2-O-methyl-3-O-(2′-amino-2′-deoxy-β-D-glucopyranosyl)-sn-glycerol], for which the “spheroid morphology and compactness” value in data set [1] (10-30 μM, after 3 days, FIG. 7A) is “profound effect on the morphology and compactness”. The spheroid integrity result in data set [1] (6 days, FIG. 7B) is reported as “complete disintegration of the spheroids”. Besides, the spheroid formation entry in the data set with BT-474 cancer stem cells and in the data set on cancer stem cells was “unable to form spheroids” each time. Moreover, the loss of viability in data set [2] (10 μM) is reported as 90%; in data set [2] (20 or 30 μM), “Complete loss of viability”. Further, in the data set on BT474 cancer stem cells, the “viability (trypan dye exclusion)” value is recorded as “not viable”. For the same molecule, in data set [3], the “caspase 3 or 9 activation during cell death” value is “without activation of caspase 3 or 9”.
